Data taken from patent US20070259439A1, “Determination of antibiotic concentration in bone” (Wyeth, priority 2006, published 2007).
Several values for one entry are separate records, joined by “and”; a condition that tells them apart may be missing. Equal values may be shown once. Read-outs that look alike come from different tables or passages of the source. Marks after values point to notes of the source that are not given here.

Columns and labels:
[1] = Antibiotic bone assay (LC/MS/MS): tigecycline concentration in incurred rat bone; assay type: in vivo; conditions: for concentration at 4 h: rat, femoral bone (pooled, ground), 3 mg/kg
Experimental: Incurred rat bone was harvested and prepared from rats administered an antibiotic. Two different groups of incurred rat bone were prepared. Group A (n=12) represented bone from rats administered a single dose of tigecycline and Group B (n=19) represented bone from rats administered multiple doses of tigecycline. Group A rats were intravenously administered a single dose of tigecycline at 3 mg/kg. At 4 hours post-dose, the rats were euthanized and the femoral bones were harvested. Group B rats were intravenously administered 3 mg/kg of ^14C-tigecycline, once daily, for 3 days. At 4 hours post-dose, on day 3, the rats were euthanized and the femoral bones were harvested.
Preparation of incurred rat bone sample: To prepare the bone for extraction, two femoral bones from each rat in each group were collected. Femoral bones were cleaned with a saline solution to remove blood and bone marrow. The bones were air-dried and combined to form two pooled samples of incurred rat bone, Group A and Group B. The femoral rat bone pools were ground for approximately 2 minutes in an industrial blender to produce bone particles <1 mm in diameter. The ground, pooled bone sample for each group was stored at −70° C. for later analysis.
Incurred rat bone (IncRB) QC sample: Approximately 0.1 g of IncRB (Group A), which was stored at −70° and thawed, was weighed and dissolved in 1.0 ml of the extraction solvent to create a mixture of bone and solvent. Then, 50 μl of extraction solvent were added to match the volume of working standard solutions added to RBCtrl calibrators or QC samples. For IncHB QC sample, the procedure is similar to rat bone except for using a human incurred bone sample and adding L-ascorbic acid solution prior to adding extraction solvent.
Approximately 100 mg of prepared IncRB and RBCtrl samples (or human control bone or incurred human bone) were accurately weighed and placed into 17×100 mm polypropylene tubes. One hundred twenty μL of stabilizing agent (100 mM ascorbic acid) was added to human bone samples (For the rat bone assay, it was proven that autosampler stability was improved by adding ascorbic acid). One ml of extraction solvent, 50 μl of each tigecycline working standard solution (or 50 μl of methanol for study samples) and 40 μl of working internal standard solution (5000 ng/ml [t-butyl-d9]-tigecycline in methanol) were added to each tube. All sample tubes were vortexed for about 60 seconds. A tissue homogenizing probe was introduced into the mixture (small particles of prepared bone samples in extraction solvent) to further break up the bone particles. The homogenizing probe was operated at a setting of 4 to 5 (˜10,000 rpm) for about 2 minutes until bone particles in the mixture became a cloudy, white homogenous suspension. The probe was removed from the suspension and cleaned between each sample preparation by immersion in 2 ml of water, operating for 30 to 60 seconds, immersion in 2 ml of methanol, operating for 30 to 60 seconds, and wiping dry. Each sample tube containing bone suspension was centrifuged at 3000 rpm, at room temperature, for about 5 minutes. The supernatant (200 μl) was removed and transferred to a 250-μl conical low volume polypropylene autosampler vial and recentrifuged for another 5 minutes before loading into the HPLC autosampler. A 20 μl aliquot of the supernatant was injected onto the LC/MS/MS for tigecycline determination.
Liquid chromatography separation procedures were carried out on a 50×2.0 mm (I.D., 3 μm) HPLC analytical column with a pre-column in-line solvent filer (2.0 μm PEEK filter) and a LC/MS switching valve. PEEK tubing ( 1/16 in.×0.005 in.) connected the separation module, analytical column, LC/MS switching valve, and mass spectrometer. The separation module included a refrigerated autosampler, an in-line degasser, and a quaternary solvent delivery system. The analytical column temperature was approximately 20° C.; autosampler temperature was maintained at 4° C. […]

[2] = Antibiotic bone assay (LC/MS/MS): tigecycline concentration in incurred human bone; assay type: in vivo
Experimental: Incurred Human Bone: Incurred human bone samples were from Wyeth 3074A1-117-US clinical study. Human bone samples were from the collection of patients who received Tygacil treatment and had bone replacement surgery in 2004. All bone samples were stored at −70° C.
Preparation of incurred human bone sample (incHB) QC sample: Collected large pieces of bone (5-50 g per piece) were immersed in liquid nitrogen in a double thickness 7″×8″ Bitran S series specimen bag and the bone sample was broken into 10 mm or smaller pieces using a steel hammer on a high density polyethylene dissecting borad (11″×13″). The bone pieces were then broken into smaller (approximately 5 mm or less) pieces using a large ceramic mortar and pestle. […]
Calibrators, quality control (QC) samples, and IncRB QC sample (an incurred rat bone sample used as a QC and evaluated multiple times) were prepared as described below. Due to high concentration of oxidant(s) in human bone (incurred and control bone), which can destroy tigecycline before it can be detected after extraction, preparation of calibrators, QCs and incurred samples for human bone require addition of 120 μL of 100 mM L-ascorbic acid solution to the samples (0.1 g) and incubation for 5 minutes at room temperature before adding extraction solvent. […]

SMILES: CN(C)c1cc(NC(=O)CNC(C)(C)C)c(O)c2c1C[C@H]1C[C@H]3[C@H](N(C)C)C(O)=C(C(N)=O)C(=O)[C@@]3(O)C(O)=C1C2=O [tigecycline, Tigecycline]
- Tigecycline concentration in pooled incurred rat bone, Mean ± SD ([1]; Group A, single i.v. dose 3 mg/kg, Day 1, 4 hour, femoral bone pool of 12 rats, 5 replicates): 1048 ± 88^b ng/g
- Tigecycline concentration in pooled incurred rat bone, Mean ± SD ([1]; Group B, multiple dose 3 mg/kg i.v. 14C-tigecycline once daily for 3 days, Day 3, 4 hour, pool of 19 rats, 5 replicates): 3192 ng/g and 3192 ± 93^b ng/g
- concentration at 4 h ([1]; intravenous, Group A, single dose 3 mg/kg, Day 1, 4 hour, measured concentration divided by 0.771, read-out: Corrected Mean Conc. in rat bone): 1360 ng/g
- concentration at 4 h ([1]; intravenous, Group B, multiple dose 3 mg/kg 14C-tigecycline, Day 3, 4 hour, measured concentration divided by 0.771, read-out: Corrected Mean Conc. in rat bone): 4140 ng/g
- concentration at 4 h ([1]; intravenous, IncRB Group B extract used for the bioassay, read-out: Concentration of tigecycline in extracted rat bone sample as determined by LC/MS): 3400 ng/g
- concentration at 4 h ([1]; iv, Group A, single i.v. dose 3 mg/kg, Day 1, 4 hour, femoral bone pool of 12 rats, 5 replicates, read-out: Tigecycline concentration in pooled incurred rat bone, Mean ± SD): 1050 ng/g
- IncRB QC sample concentration (incurred rat bone Group A) ([1]; single i.v. 3 mg/kg, 4 hours post-dose, nominal value = mean of 3-day global inter-day validation (n = 15)): 987 ng/g and 987^a ng/g
- Tigecycline concentration in incurred human bone samples ([2]; 24 individual samples, study 3074A1-117-US, stored approximately twenty-one months at −70° C.): 492 ng/g (2×) and 550 ng/g and 665 ng/g and 431 ng/g and 628 ng/g and 269 ng/g and 290 ng/g and 335 ng/g and 238 ng/g and 240 ng/g and 433 ng/g and 560 ng/g and 362 ng/g and 491 ng/g and 595 ng/g and 258 ng/g and 323 ng/g and 421 ng/g and 411 ng/g and 626 ng/g and 281 ng/g and 439 ng/g and 794 ng/g
- Inc HB QC sample concentration (incurred human bone) ([2]; patients who received Tygacil, nominal value = mean of 3-day global inter-day validation (n = 15)): 257 ng/g and 257^a ng/g
